Measurements reported in patent US20250263404A1, “AMINOPYRIDINES AS ACTIVATORS OF PI3 KINASE” (UCL Business Ltd, priority 2021, published 2025).

Columns and labels:
[1] = test system: mutant PI3Kα (D603K, D603A, 603DCN_AAA605, D603A/F1016S, L1006R, F1016S, L1006R/F1016S); assay: Activation of binding-pocket mutants of PI3Kα; assay type: biochemical; conditions: all mutants activatable by pY
Source text: The inventors then performed mutagenesis in attempt to generate 1938-resistant mutants. Based on the crystal structure and SAR data, we made the following mutants: D603K, D603A, 603DCN_AAA605 triple mutant, D603A/F1016S double mutant, L1006R, F1016S, and the L1006R/F1016S double mutant.

p110α/p85α = molecular target: T1, p110α/p85α (Homo sapiens, UniProt P42336); assay: HDX-MS of full-length p110α/p85α; conditions: wild-type p110α/p85α
T1 construct: Full-length p110α was expressed in a complex with full-length p85α (for biochemistry and HDX-MS); 6xHis followed by TEV protease site (N); made in house; host or cells: Spodoptera frugiperda Sf9 (baculovirus co-infection; plasmids OP831 and OP809)
T1 sequence (P42336 whole entry): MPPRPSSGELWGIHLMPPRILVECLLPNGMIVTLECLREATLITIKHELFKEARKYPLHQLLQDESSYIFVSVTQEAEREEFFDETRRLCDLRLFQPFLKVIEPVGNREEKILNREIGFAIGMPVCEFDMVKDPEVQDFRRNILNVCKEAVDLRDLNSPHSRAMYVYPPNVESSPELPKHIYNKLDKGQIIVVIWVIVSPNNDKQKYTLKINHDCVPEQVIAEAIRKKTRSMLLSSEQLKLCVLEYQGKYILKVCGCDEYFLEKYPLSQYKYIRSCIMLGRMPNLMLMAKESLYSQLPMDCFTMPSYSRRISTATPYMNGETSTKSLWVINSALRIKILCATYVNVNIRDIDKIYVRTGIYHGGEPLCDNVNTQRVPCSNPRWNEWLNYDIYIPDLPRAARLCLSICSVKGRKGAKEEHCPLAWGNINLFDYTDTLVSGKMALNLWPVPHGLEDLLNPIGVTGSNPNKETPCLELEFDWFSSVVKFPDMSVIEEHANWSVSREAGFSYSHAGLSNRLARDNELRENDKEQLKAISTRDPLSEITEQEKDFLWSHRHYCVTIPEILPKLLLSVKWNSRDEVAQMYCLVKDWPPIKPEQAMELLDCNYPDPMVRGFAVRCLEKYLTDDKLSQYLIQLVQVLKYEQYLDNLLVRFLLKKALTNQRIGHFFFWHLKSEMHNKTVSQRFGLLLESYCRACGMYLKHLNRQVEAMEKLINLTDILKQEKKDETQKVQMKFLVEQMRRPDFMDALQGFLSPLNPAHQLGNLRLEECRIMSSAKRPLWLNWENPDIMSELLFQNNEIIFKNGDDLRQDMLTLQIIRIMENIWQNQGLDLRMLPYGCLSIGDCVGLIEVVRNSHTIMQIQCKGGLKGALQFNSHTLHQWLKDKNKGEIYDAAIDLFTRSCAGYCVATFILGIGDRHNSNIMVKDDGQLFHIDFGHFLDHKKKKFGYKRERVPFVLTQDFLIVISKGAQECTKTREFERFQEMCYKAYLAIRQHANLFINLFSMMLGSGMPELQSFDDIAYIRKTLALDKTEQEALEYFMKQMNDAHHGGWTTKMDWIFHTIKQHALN
T1 sequence (P27986 whole entry partner): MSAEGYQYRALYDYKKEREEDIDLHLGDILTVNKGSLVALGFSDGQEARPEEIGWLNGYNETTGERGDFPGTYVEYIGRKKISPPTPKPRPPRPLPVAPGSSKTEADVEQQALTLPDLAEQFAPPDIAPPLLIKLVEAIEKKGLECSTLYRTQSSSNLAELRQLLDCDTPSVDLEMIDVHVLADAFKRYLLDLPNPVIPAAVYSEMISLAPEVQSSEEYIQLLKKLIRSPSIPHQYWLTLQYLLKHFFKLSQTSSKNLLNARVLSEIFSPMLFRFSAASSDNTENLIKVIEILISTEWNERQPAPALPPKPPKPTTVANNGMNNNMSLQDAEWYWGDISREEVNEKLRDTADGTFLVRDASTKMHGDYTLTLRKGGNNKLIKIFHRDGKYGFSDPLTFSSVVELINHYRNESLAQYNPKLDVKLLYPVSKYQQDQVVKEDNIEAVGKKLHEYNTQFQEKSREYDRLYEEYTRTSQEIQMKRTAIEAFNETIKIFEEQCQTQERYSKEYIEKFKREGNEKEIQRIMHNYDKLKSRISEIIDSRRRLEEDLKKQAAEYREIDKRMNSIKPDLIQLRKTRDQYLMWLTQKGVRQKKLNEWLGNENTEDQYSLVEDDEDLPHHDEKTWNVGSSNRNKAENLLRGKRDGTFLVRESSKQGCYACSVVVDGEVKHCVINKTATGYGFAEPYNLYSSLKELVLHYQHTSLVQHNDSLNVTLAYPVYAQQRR
Source text: The inventors used hydrogen-deuterium exchange mass spectrometry (HDX-MS) which allows the investigation of compound binding sites and conformational changes using soluble, native proteins, and which has been key to unravel the molecular mechanisms of physiological activation of class IA PI3Ks. Class IA PI3K activation occurs through de-inhibition of the auto-inhibited p85/p110 complex, via the release of inhibitory interactions between p85 and p110, upon binding of the complex to bis-phosphorylated motifs in membrane-resident receptors or cytosolic adaptors. […]
In total, three biological replicates, i.e., three separate protein preparations, each with exchange experiments were carried out in triplicate were conducted. […] A “blank” sample of protein dilution buffer with quench was run between samples, and carry-over of peptides was routinely monitored. […] Data was analysed using Protein Lynx Global Server (Waters) and DynamX (Waters). […] Data quality, experiment design, and reporting of data meets the criteria as determined by the HDX-MS community (Masson, G. R. et al. Nat Methods 16, 595-602 (2019)). […]

[2] = test system: pAKT^S473 in MEFs and A549; assay: Time course of pAKT S473 induction in MEFs and A549; assay type: cell-based; conditions: 1938 (5 μM)
Source text: The inventors next monitored the activation of AKT, the best-known PI3K effector stimulated by PIP3/PI(3,4)P2 production in cells. […] As previously reported, PI3Kα-null MEFs still respond to insulin, but now in a PI3Kβ-dependent manner, as shown by sensitivity of insulin-stimulated pAKT^S473 to the PI3Kβ-selective inhibitor TGX-221 (FIG. 3b). […] Similar observations were made for mTORC1 pathway activation, as measured by S6 (Ser240/44) and 4EBP1 (Ser65) phosphorylation (FIG. 3e). […] Experiments with A549 cells and MEFs were performed separately using slightly different protocols. Briefly, A549 cells were seeded at 200,000 cells per well in 24-well plates in DMEM (10% FBS+1% P/S) and allowed to adhere overnight. The next day, cells were washed once with PBS before addition of serum-free DMEM for 24 h. On the day of treatment, cells were incubated in fresh serum-free DMEM prior to treatment. […]

CCN1CCN(c2ccc(Nc3cc(Nc4cccc5c4N(C(C)=O)CC5)ccn3)cc2)CC1 [Example 1938]
activation of pocket mutants by 1938 [1]: resistant to activation by 1938
Movement of the adapter-binding domain (p110α/p85α): −/?
time of onset of pAKT^S473 induction [2]: 5 min
time of peak pAKT^S473 activation [2]: 30 min
